The compounds below were run against CBP (Homo sapiens (Human), UniProt Q92793) (assay: HTRF biochemical assay for CBP activity (TR-FRET, bromodomain)). Settings: geometric mean, 10-point 3-fold dilution 33 μM to 1.7 nM, read-out: BROMO IC50 TRF TB CBP (μM gmean).
Format: binding
Description: Example 1: HTRF Biochemical Assay for CBP Activity
The assay was performed in a final volume of 6 μL in assay buffer containing 50 mM Hepes (pH 7.5, (0.5M Hepes, pH 7.5 solution; Teknova H1575)), 0.5 mM GSH, 0.01% BGG (0.22 p M filtered, Sigma, G7516-25G), 0.005% BSA (0.22 μM filtered, EMD Millipore Corporation, 126575) and 0.01% Triton X-100 (Sigma, T9284-10L). Nanoliter quantities of 10-point, 3-fold serial dilution in DMSO were pre-dispensed into 1536 assay plates (Corning, #3724BC) for a final test concentration of 33 μM to 1.7 nM, top to lowest dose, respectively. 3 μL of 2×Protein and 3 μL of 2×Peptide Ligand were added to assay plates (pre-stamped with compound). Plates were incubated for varying times at room temperature prior to measuring the signal. TR-FRET (Time-Resolved Fluorescence Resonance Energy Transfer) was measured on the PHERAstar (BMG, equipped with HTRF optic module [337/520/490]) or on the Envision (PerkinElmer, equipped with the TRF Laser unit, TRF dual mirror D400/D505 and emission filters M520 and M495). Data were reported as percent inhibition compared with control wells based on the following equation: % inh=1−((TR-FRET ratio−AveLow)/(AveHigh−AveLow)) where TR-FRET ratio=(Fluorescence at 520 nm/Fluorescence at 490 nm)*10000), AveLow=average TR-FRET ratio of no enzyme control (n=32), and AveHigh=average TR-FRET ratio of DMSO control (n=32). IC50 values were determined by curve fitting of the standard 4 parameter logistic fitting algorithm included in the Activity Base software package: IDBS XE Designer Model205. Data is fitted using the Levenburg Marquardt algorithm. As set forth in Table 2 below, an IC50 value of greater than or equal to 0.001 μM and less than or equal to 0.01 μM is marked “++++”; a value greater than 0.01 μM and less than or equal to 0.1 μM is marked “+++”; a value greater than 0.1 μM and less than or equal to 1 μM is marked “++”; and a value greater than 1 μM and less than 1000 μM is marked “+.” Compounds that were not tested in a particular assay are marked “NT.”

Sequence of CBP (Q92793 1085-1192): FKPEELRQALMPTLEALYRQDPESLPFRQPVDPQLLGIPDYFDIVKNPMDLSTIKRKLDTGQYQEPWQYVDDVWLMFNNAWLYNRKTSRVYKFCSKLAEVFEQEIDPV

IC50, 0.001 to 0.01 µM:
COC(=O)N1CCc2ccc3c(nc([C@H]4CC[C@H](C(=O)O)CC4)n3[C@@H](CO)Cc3ccc(F)c(F)c3)c2C1 [Compound 74]
COC(=O)N1CCc2ccc3c(nc(N4CCC(C)(C(=O)O)CC4)n3[C@@H](C)Cc3ccccc3)c2C1 [Compound 75]
COC(=O)N1CCc2ccc3c(nc(C4CCCCC4)n3C[C@@H](CC(=O)O)c3cc(F)cc(F)c3)c2C1 [Compound 76]
COC(=O)N1CCc2ccc3c(nc(-c4ccc(C(=O)O)cc4)n3[C@@H](C)Cc3ccccc3)c2C1 [Compound 77]
COC(=O)N1CCc2ccc3c(nc(-c4ccc(CC(=O)O)cc4)n3[C@@H](C)Cc3ccccc3)c2C1 [Compound 78]
COC(=O)N1CCc2ccc3c(nc(N4CCN(C(=O)C5COC5)CC4)n3[C@H](C)Cc3ccccc3)c2C1 [Compound 79]
COC(=O)N1CCc2ccc3c(nc(N4CCN(S(C)(=O)=O)CC4)n3[C@@H](C)Cc3ccccc3)c2C1 [Compound 80]
COC(=O)N1CCc2c(Cl)cc3c(nc([C@H]4CC[C@H](C(=O)O)CC4)n3[C@@H](C)Cc3ccccc3)c2C1 [Compound 81]
COC(=O)N1CCc2ccc3c(nc(N4CCC[C@@H](C(=O)O)C4)n3[C@@H](C)Cc3ccccc3)c2C1 [Compound 82]
COC(=O)N1CCc2ccc3c(nc(C4CCCCC4)n3C[C@H]3CC[C@H](C(=O)O)CC3)c2C1 [Compound 83]
COC(=O)N1CCc2ccc3c(nc(C4CCC(C(=O)O)CC4)n3CCc3ccccc3)c2C1 (stereo not shown) [Compound 84]
COC(=O)N1CCc2ccc3c(nc([C@H]4CC[C@H](C(=O)O)CC4)n3[C@@H](C)Cn3cc(Cl)cn3)c2C1 [Compound 85]
COC(=O)N1CCc2ccc3c(nc([C@H]4CC[C@H](C(=O)O)CC4)n3Cc3ccc4c(c3)OCC4)c2C1 [Compound 86]
COC(=O)N1CCc2ccc3c(nc(C4CCCCC4)n3CC[C@H]3CC[C@@H](C(=O)O)CC3)c2C1 [Compound 87]
COC(=O)N1CCc2ccc3c(nc([C@H]4CC[C@H](C(=O)O)CC4)n3[C@@H](C)Cn3ncc4ccccc43)c2C1 [Compound 88]
COC(=O)N1CCc2ccc3c(nc([C@H]4CCCOC4)n3C[C@H](C(=O)O)c3ccccc3)c2C1 [Compound 89]
COC(=O)N1CCc2c([C@@H]3CCOC3)cc3c(nc([C@H]4CC[C@H](C(=O)O)CC4)n3CCc3ccccc3)c2C1 [Compound 90]
COC(=O)N1CCc2ccc3c(nc(C4CCCCC4)n3[C@H](C)C[C@@H]3CCCC[C@@H]3C(=O)O)c2C1 [Compound 91]
COC(=O)N1CCc2ccc3c(nc([C@H]4CC[C@H](C(=O)O)CC4)n3[C@@H](C)[C@@H](O)c3ccccc3)c2C1 [Compound 92]
COC(=O)N1CCc2ccc3c(nc([C@H]4CC[C@H](C(=O)O)CC4)n3[C@@H](C)Cc3ccc(C)cc3)c2C1 [Compound 93]
COC(=O)N1CCc2ccc3c(nc([C@H]4CC[C@H](C(=O)O)CC4)n3Cc3ccc(OC)c(F)c3)c2C1 [Compound 94]
COC(=O)N1CCc2ccc3c(nc([C@H]4CC[C@H](C(=O)O)CC4)n3[C@H](C)Cc3c(F)cccc3F)c2C1 [Compound 95]
COC(=O)N1CCc2ccc3c(nc([C@H]4CC[C@H](S(=O)(=O)NC(C)=O)CC4)n3[C@@H](C)Cc3ccccc3)c2C1 [Compound 96]
COC(=O)N1CCc2ccc3c(nc([C@H]4CC[C@H](S(N)(=O)=O)CC4)n3[C@@H](C)Cc3ccccc3)c2C1 [Compound 97]
COC(=O)N1CCc2ccc3c(nc(C4CCCCC4)n3C[C@@H](CC(=O)O)c3ccccc3C)c2C1 [Compound 98]
COC(=O)N1CCc2ccc3c(nc([C@H]4CC[C@H](C(=O)O)CC4)n3[C@@H](C)Cc3cccc(C)c3)c2C1 [Compound 100]
COC(=O)N1CCc2ccc3c(nc(-c4cccc(CC(=O)O)c4)n3[C@@H](C)Cc3ccccc3)c2C1 [Compound 101]
COC(=O)N1CCc2ccc3c(nc(C4CCCCC4)n3[C@@H](C)Cc3cccc(C(=O)O)c3)c2C1 [Compound 102]
COC(=O)N1CCc2c(C(=O)O)cc3c(nc(N4CCCCC4)n3C[C@@H](C)c3ccccc3)c2C1 [Compound 103]
COC(=O)N1CCc2ccc3c(nc(C4CCCCC4)n3C[C@H](C(=O)O)c3cccc(F)c3F)c2C1 [Compound 104]
COC(=O)N1CCc2ccc3c(nc(C4CCCCC4)n3CCc3cccc(C(=O)O)c3)c2C1 [Compound 105]
COC(=O)N1CCc2ccc3c(nc(C4CCN(C(=O)CO)CC4)n3[C@@H](C)Cc3ccccc3)c2C1 [Compound 106]
COC(=O)N1CCc2ccc3c(nc(C4CCN(S(N)(=O)=O)CC4)n3[C@@H](C)Cc3ccccc3)c2C1 [Compound 107]
COC(=O)N1CCc2ccc3c(nc(N4CCCCC4)n3[C@@H](C)Cc3cccc(-c4nnn[nH]4)c3)c2C1 [Compound 108]
COC(=O)N1CCc2ccc3c(nc(-c4ccncc4)n3[C@@H](C)Cc3ccccc3)c2C1 [Compound 109]
COC(=O)N1CCc2ccc3c(nc(C4CCN(S(C)(=O)=O)CC4)n3[C@H](C)Cn3cc(Cl)cn3)c2C1 [Compound 110]
COC(=O)N1CCc2ccc3c(nc([C@H]4CC[C@H](C(=O)O)CC4)n3[C@H](C)Cc3cccnc3)c2C1 [Compound 111]
COC(=O)N1CCc2ccc3c(nc(C4CCCCC4)n3[C@H](C)C[C@H]3CCCC[C@@H]3C(=O)O)c2C1 [Compound 112]
COC(=O)N1CCc2ccc3c(nc(-c4cccc(CC(=O)O)c4)n3[C@@H](C)Cn3cc(Cl)cn3)c2C1 [Compound 113]
COC(=O)N1CCc2ccc3c(nc([C@H]4CC[C@H](C(=O)O)CC4)n3[C@H](C)CC3CCCCC3)c2C1 [Compound 114]
COC(=O)N1CCc2ccc3c(nc(C4CCCCC4)n3C[C@H](CC(=O)O)c3ccccc3C)c2C1 [Compound 115]
COC(=O)N1CCc2ccc3c(nc(-c4cccc(CC(=O)O)c4)n3[C@@H](C)Cc3cc(F)cc(F)c3)c2C1 [Compound 116]
COC(=O)N1CCc2ccc3c(nc([C@H]4CC[C@](C)(C(=O)O)CC4)n3[C@H](CO)Cc3ccccc3)c2C1 [Compound 117]
COC(=O)N1CCc2cc(CC#N)c3c(nc([C@H]4CC[C@H](C(=O)O)CC4)n3CCc3ccccc3)c2C1 [Compound 118]
COC(=O)N1CCc2ccc3c(nc(C45CC(C(=O)O)(C4)C5)n3[C@@H](C)Cc3ccccc3)c2C1 [Compound 119]
COC(=O)N1CCc2ccc3c(nc(C4CCCCC4)n3[C@@H](C)C[C@@H]3CCCC[C@@H]3C(=O)O)c2C1 [Compound 120]
COC(=O)N1CCc2c(C#N)cc3c(nc([C@H]4CC[C@H](C(=O)O)CC4)n3CCc3ccccc3)c2C1 [Compound 121]
COC(=O)N1CCc2ccc3c(nc(-c4ccc(CC(=O)O)cc4)n3[C@@H](C)Cn3cc(Cl)cn3)c2C1 [Compound 122]
COC(=O)N1CCc2ccc3c(nc([C@H]4CC[C@H](OC)CC4)n3C[C@@H](C(=O)O)c3ccccc3)c2C1 [Compound 123]
COC[C@@H](Cc1ccccc1)n1c2ccc3c(c2nc1[C@H]1CC[C@H](C(=O)O)CC1)CN(C(=O)OC)CC3 [Compound 124]
COC(=O)N1CCc2ccc3c(nc([C@H]4CC[C@H](C(=O)O)CC4)n3[C@H](C)C(F)(F)c3ccccc3)c2C1 [Compound 125]
COC(=O)N1CCc2ccc3c(nc(C4CCCCC4)n3CC(C(=O)O)C3CCCCC3)c2C1 (stereo not shown) [Compound 126]
